Patent US20220389009A1, “SUBSTITUTED 1,6-NAPHTHYRIDINE INHIBITORS OF CDK5” (Goldfinch Bio, Inc., priority 2019, published 2022)

Columns and labels:
[1] = target: CDK5/p25 (Homo sapiens, UniProt Q00535); assay: CDK5 mobility shift assay (enzymatic activity of CDK5/p25); type: biochemical; conditions: for IC50: 0.154 nM CDK5/p25, FL peptide 29, 60 min at room temperature, read-out: CDK5 IC50; for CDK5/CDK2 specificity: fold more active against CDK5 than CDK2
Method in brief: (§1)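 Carna CDK5/p25 (0.154 nM) or CDK2/CycA2 (1.25 nM) was preincubated 30 min with compound, ATP ([…] for CDK5; 37 μM for CDK2) and 10 mM MgCl2 in HEPES pH 7.5. The reaction was started with 1.5 μM FL peptide (29 for CDK5, 18 for CDK2) and run 60 min (CDK5) or 120 min (CDK2) at room temperature. Product was read by mobility shift, with IC50 from a 4-parameter fit.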

[2] = target: CDK2/CycA2 (Homo sapiens, UniProt P24941); assay: CDK2 mobility shift assay (enzymatic activity of CDK2/CycA2); type: biochemical; conditions: 1.25 nM CDK2/CycA2, 37 μM ATP, FL Peptide 18, 120 min at room temperature; read-out: CDK2 IC50
Method in brief: as §1

CDK5/p25, sequence (Q00535 whole entry): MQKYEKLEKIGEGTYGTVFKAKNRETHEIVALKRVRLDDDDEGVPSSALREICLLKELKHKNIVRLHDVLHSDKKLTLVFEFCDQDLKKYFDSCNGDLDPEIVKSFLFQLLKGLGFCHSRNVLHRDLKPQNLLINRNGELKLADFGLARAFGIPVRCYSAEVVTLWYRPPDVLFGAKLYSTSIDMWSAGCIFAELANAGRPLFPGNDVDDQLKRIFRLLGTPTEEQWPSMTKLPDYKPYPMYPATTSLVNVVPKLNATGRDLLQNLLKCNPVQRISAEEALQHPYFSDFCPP
CDK5/p25, sequence (Q15078 99-307 partner limits assumed): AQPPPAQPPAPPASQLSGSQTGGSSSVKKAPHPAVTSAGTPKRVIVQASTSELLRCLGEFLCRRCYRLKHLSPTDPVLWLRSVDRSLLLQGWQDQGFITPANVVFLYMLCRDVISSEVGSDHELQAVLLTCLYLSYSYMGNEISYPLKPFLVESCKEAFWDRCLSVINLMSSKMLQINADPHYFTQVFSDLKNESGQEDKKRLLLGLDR

Structure (SMILES)	IC50 [1] [nM]	CDK5/CDK2 specificity [1]	IC50 [2] [nM]
COC(=O)c1ccn(-c2ccc(Nc3cc4nc(C(O)C5CCN(C)CC5)ccc4cn3)c(F)c2)n1 (stereo not drawn) [Compound 344]	100 to 1000	++ (greater than 10-fold and less than or equal to 100-fold more active against CDK5 than CDK2)	> 1000
CN1CCC([C@@](C)(O)c2ccc3cnc(Nc4ccccc4)cc3n2)CC1 [Compound 345, (1R)-1-(1-methylpiperidin-4-yl)-1-[7-(phenylamino)-1,6-naphthyridin-2-yl]ethanol]	< 10	++ (greater than 10-fold and less than or equal to 100-fold more active against CDK5 than CDK2)	10 to 100
CN1CCC(C(C)(O)c2ccc3cnc(Nc4ccc(-c5ccc(=O)n(C)c5)cc4F)cc3n2)CC1 (stereo not drawn) [Compound 346]	100 to 1000	++ (greater than 10-fold and less than or equal to 100-fold more active against CDK5 than CDK2)	> 1000
COC(=O)c1ccn(-c2ccc(Nc3cc4nc(C(O)C5CCN(C)CC5)ccc4cn3)c(F)c2)n1 (stereo not drawn) [Compound 347]	< 10	+++ (greater than 100-fold more active against CDK5 than CDK2)	100 to 1000
CN1CCC(C(C)(O)c2ccc3cnc(Nc4cccc(N5CCOCC5)c4)cc3n2)CC1 (stereo not drawn) [Compound 348]	< 10	++ (greater than 10-fold and less than or equal to 100-fold more active against CDK5 than CDK2)	100 to 1000
CN1CCC(C(C)(O)c2ccc3cnc(Nc4cccc(N5CCCC5=O)c4)cc3n2)CC1 (stereo not drawn) [Compound 350]	< 10	++ (greater than 10-fold and less than or equal to 100-fold more active against CDK5 than CDK2)	10 to 100
CN1CCC(C(C)(O)c2ccc3cnc(Nc4ccc(-c5ccc(=O)n(C)c5)cc4F)cc3n2)CC1 (stereo not drawn) [Compound 351]	< 10	++ (greater than 10-fold and less than or equal to 100-fold more active against CDK5 than CDK2)	10 to 100
CN1CCC(C(C)(O)c2ccc3cnc(Nc4ccc(-c5cccn(C)c5=O)cc4F)cc3n2)CC1 (stereo not drawn) [Compound 352]	< 10	+++ (greater than 100-fold more active against CDK5 than CDK2)	100 to 1000
CN1CCC(C(C)(O)c2ccc3cnc(Nc4ccc(CN5CCOCC5)cc4F)cc3n2)CC1 (stereo not drawn) [Compound 353]	< 10	++ (greater than 10-fold and less than or equal to 100-fold more active against CDK5 than CDK2)	10 to 100
CN1CCC(C(C)(O)c2ccc3cnc(Nc4ccc(-c5cccc(=O)n5C)cc4F)cc3n2)CC1 (stereo not drawn) [Compound 354]	< 10	++ (greater than 10-fold and less than or equal to 100-fold more active against CDK5 than CDK2)	10 to 100
CN1CCC(C(C)(O)c2ccc3cnc(Nc4ccc(-c5noc(=O)[nH]5)cc4F)cc3n2)CC1 (stereo not drawn) [Compound 355]	< 10	++ (greater than 10-fold and less than or equal to 100-fold more active against CDK5 than CDK2)	10 to 100
CN1CCC(C(C)(O)c2ccc3cnc(Nc4ccc(-c5ccc(C#N)cn5)cc4F)cc3n2)CC1 (stereo not drawn) [Compound 356]	< 10	++ (greater than 10-fold and less than or equal to 100-fold more active against CDK5 than CDK2)	10 to 100
CN1CCC(C(C)(O)c2ccc3cnc(Nc4ccc(-c5ccc(C#N)cc5)cc4F)cc3n2)CC1 (stereo not drawn) [Compound 358]	< 10	++ (greater than 10-fold and less than or equal to 100-fold more active against CDK5 than CDK2)	10 to 100
CN1CCC([C@@](C)(O)c2ccc3cnc(Nc4ccc(-n5cc(C(=O)O)cn5)cc4F)cc3n2)CC1 [Compound 362, 1-[3-fluoro-4-([2-[(1R)-1-hydroxy-1-(1-methylpiperidin-4-yl)ethyl]-1,6-naphthyridin-7-yl]amino)phenyl]pyrazole-4-carboxylic acid]	< 10	++ (greater than 10-fold and less than or equal to 100-fold more active against CDK5 than CDK2)	10 to 100
CN1CCC([C@@](C)(O)c2ccc3cnc(Nc4ccc(-c5cccc(C(N)=O)c5)cc4F)cc3n2)CC1 [Compound 364, (R)-3′-fluoro-4′-((2-(1-hydroxy-1-(1-methylpiperidin-4-yl)ethyl)-1,6-naphthyridin-7-yl)amino)-[1,1′-biphenyl]-3-carboxamide]	< 10	++ (greater than 10-fold and less than or equal to 100-fold more active against CDK5 than CDK2)	10 to 100
CN1CCC(C2(c3ccc4cnc(Nc5ccc(-n6cccn6)cc5F)cc4n3)CCO2)CC1 (stereo not drawn) [Compound 365, N-(2-fluoro-4-(1H-pyrazol-1-yl)phenyl)-2-(2-(1-methylpiperidin-4-yl)oxetan-2-yl)-1,6-naphthyridin-7-amine]	10 to 100	++ (greater than 10-fold and less than or equal to 100-fold more active against CDK5 than CDK2)	100 to 1000
COC(=O)c1cnn(-c2ccc(Nc3cc4nc([C@](C)(O)C5CCN(C)CC5)ccc4cn3)c(F)c2)c1 [Compound 367, methyl 1-[3-fluoro-4-([2-[(1R)-1-hydroxy-1-(1-methylpiperidin-4-yl)ethyl]-1,6-naphthyridin-7-yl]amino)phenyl]pyrazole-4-carboxylate]	< 10	++ (greater than 10-fold and less than or equal to 100-fold more active against CDK5 than CDK2)	10 to 100
CN1CCC(C(C)(O)c2ccc3cnc(Nc4ccc(S(C)(=O)=O)cc4)cc3n2)CC1 (stereo not drawn) [Compound 370]	< 10	+ (10-fold or less more active against CDK5 than CDK2)	< 10
CN1CCC(C(C)(O)c2ccc3cnc(Nc4ccc(-n5ccc(C#N)n5)cc4F)cc3n2)CC1 (stereo not drawn) [Compound 371]	< 10	++ (greater than 10-fold and less than or equal to 100-fold more active against CDK5 than CDK2)	100 to 1000
CN1CCC(C(C)(O)c2ccc3cnc(Nc4cccc(C(N)=O)c4)cc3n2)CC1 (stereo not drawn) [Compound 372]	< 10	++ (greater than 10-fold and less than or equal to 100-fold more active against CDK5 than CDK2)	< 10
CCc1cccc(Nc2cc3nc(C(C)(O)C4CCN(C)CC4)ccc3cn2)c1 (stereo not drawn) [Compound 373]	< 10	++ (greater than 10-fold and less than or equal to 100-fold more active against CDK5 than CDK2)	10 to 100
CN1CCC(/C(=N\O)c2ccc3cnc(Nc4ccc(-n5cccn5)cc4F)cc3n2)CC1 [Compound 375]	< 10	++ (greater than 10-fold and less than or equal to 100-fold more active against CDK5 than CDK2)	10 to 100
CN1CCC(S(=O)(=O)c2ccc3cnc(Nc4ccc(-c5ncon5)cc4F)cc3n2)CC1 [Compound 376]	100 to 1000	+ (10-fold or less more active against CDK5 than CDK2)	100 to 1000
CN1CCC(S(=O)(=O)c2ccc3cnc(Nc4ccc(-c5cccn(C)c5=O)cc4F)cc3n2)CC1 [Compound 378]	10 to 100	+++ (greater than 100-fold more active against CDK5 than CDK2)	> 1000
CCc1ccc(F)c(Nc2cc3nc(S(=O)(=O)C4CCN(C)CC4)ccc3cn2)c1 [Compound 379]	< 10	+++ (greater than 100-fold more active against CDK5 than CDK2)	100 to 1000
